Data reported in patent US5744339A, “Thiomethylene group-containing aldehyde cysteine and serine protease inhibitors” (Cephalon, Inc., priority 1996, dated 1998).
pIC50: −log10 of the molar value.

Key:
Format in all cases: biochemical
thrombin = biological target: T1, thrombin (Homo sapiens, UniProt P00734); experiment: Inhibition of thrombin (serine protease) activity; conditions: 10 μM inhibitor; 25 μM Bz-Phe-Val-Arg-AMC, pH 7.5; read-out: Thrombin % I @ 10 μM
T1 construct: purchased Sigma Chem. Co. T-7009
Method: (§1) Additionally,because α-chymotrypsin is not a calcium sensitive enzyme and is constitutively active, following addition of inhibitor stocks to the 96 well plates, 100 μl of a 2-fold concentrated stock of enzyme in dilution buffer was first added and the reaction started by addition of 10 μl of a 2-fold concentrated stock of substrate in assay buffer. Substrate hydrolysis was monitored every 5 minutes up to 30 minutes using a Fluoroskan II ([…]). The result is expressed as inhibition of α-chymotrypsin at 10 μM.
Inhibition of thrombin (Sigma Chem. Co. Cat. #T-7009) was evaluated as described for chymotrypsin except that the assay was performed in 50 mM Tris, 10 mM CaCl2, pH 7.5 and the substrate was 25 μM Bz-Phe-Val-Arg-AMC (Bachem cat#I-1080).

cathepsin L = biological target: T2, cathepsin L (Homo sapiens, UniProt P07711); experiment: Inhibition of cathepsin L (cysteine protease) activity; conditions: 0.006 mM Cbz-Phe-Arg-AMC, pH 6.0; read-out: Cat L IC50
T2 construct: purchased Calbiochem 219402
T2 sequence (P07711 114-288 limits assumed): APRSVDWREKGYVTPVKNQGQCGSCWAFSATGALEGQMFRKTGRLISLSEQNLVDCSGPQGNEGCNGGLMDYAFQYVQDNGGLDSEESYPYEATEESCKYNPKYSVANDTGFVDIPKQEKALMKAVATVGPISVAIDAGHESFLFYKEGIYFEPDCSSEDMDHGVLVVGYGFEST
T2 sequence (P07711 292-333 limits assumed): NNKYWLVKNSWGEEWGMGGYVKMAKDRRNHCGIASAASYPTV
Method: (§2) To evaluate inhibitory activity, stock solutions (40 times concentrated) of each compound to be tested were prepared in 100% anhydrous DMSO and 5 μL of each inhibitor preparation were aliquoted into each of three wells of a 96-well plate. Calpain I, prepared by a modification of the method of W. J. Lee et al. (Biochem. Internatl. 22: 163-171 (1990)), was diluted into assay buffer (i.e., 50 mM Tris, 50 mM NaCl, 1 mM EDTA, 1 mM EGTA, and 5 mM β-mercaptoethanol, pH 7.5 including 0.2 mM Succ-Leu-Tyr-MNA) and 175 μL aliquoted into the same wells containing the independent inhibitor stocks, as well as to positive control wells containing 5 μL DMSO, but no compound. To start the reaction, 20 μL of 50 mM CaCl2 in assay buffer was added to all wells of the plate, excepting three, which were used as background signal baseline controls. Substrate hydrolysis was monitored every 5 minutes for a total of 30 minutes using a Fluoroskan II fluorescence plate reader. Substrate hydrolysis in the absence of inhibitor was linear for up to 15 minutes.
(§3) Inhibition of calpain I activity was calculated as the percent decrease in the rate of substrate hydrolysis in the presence of inhibitor relative to the rate in its absence. Comparison between the inhibited and control rates was made within the linear range for substrate hydrolysis. For screening, compounds were tested at 10 μm. Compounds having 50% inhibition at 10 μM were considered active. The IC50s of inhibitors (i.e., the concentration yielding 50% inhibition) were determined from the percent decrease in the rates of substrate hydrolysis in the presence of five to seven different concentrations of the test compound. The results were plotted as % inhibition versus log inhibitor concentration and the IC50 was calculated from linear regression of the data.
Additionally, the order of reagents added to the plate was altered because both enzymes are constitutively active. Following inhibitor addition to the plates, appropriate 2× concentrated stock dilutions of the enzyme preparations were made in assay buffer and 10 ul added to each well.
The assay was initiated by addition of 100 ul of 2× concentrated stock dilution of substrate in assay buffer. Substrate hydrolysis was monitored using a Fluoroskan II (ex=390 nm; em=460 nm).

Calpain I = biological target: T3, Calpain I (Homo sapiens, UniProt P07384); experiment: Inhibition of calpain I (cysteine protease) activity; conditions: 0.2 mM Succ-Leu-Tyr-MNA, pH 7.5, CaCl2 start
T3 construct: made in house
T3 sequence (P07384 1-714): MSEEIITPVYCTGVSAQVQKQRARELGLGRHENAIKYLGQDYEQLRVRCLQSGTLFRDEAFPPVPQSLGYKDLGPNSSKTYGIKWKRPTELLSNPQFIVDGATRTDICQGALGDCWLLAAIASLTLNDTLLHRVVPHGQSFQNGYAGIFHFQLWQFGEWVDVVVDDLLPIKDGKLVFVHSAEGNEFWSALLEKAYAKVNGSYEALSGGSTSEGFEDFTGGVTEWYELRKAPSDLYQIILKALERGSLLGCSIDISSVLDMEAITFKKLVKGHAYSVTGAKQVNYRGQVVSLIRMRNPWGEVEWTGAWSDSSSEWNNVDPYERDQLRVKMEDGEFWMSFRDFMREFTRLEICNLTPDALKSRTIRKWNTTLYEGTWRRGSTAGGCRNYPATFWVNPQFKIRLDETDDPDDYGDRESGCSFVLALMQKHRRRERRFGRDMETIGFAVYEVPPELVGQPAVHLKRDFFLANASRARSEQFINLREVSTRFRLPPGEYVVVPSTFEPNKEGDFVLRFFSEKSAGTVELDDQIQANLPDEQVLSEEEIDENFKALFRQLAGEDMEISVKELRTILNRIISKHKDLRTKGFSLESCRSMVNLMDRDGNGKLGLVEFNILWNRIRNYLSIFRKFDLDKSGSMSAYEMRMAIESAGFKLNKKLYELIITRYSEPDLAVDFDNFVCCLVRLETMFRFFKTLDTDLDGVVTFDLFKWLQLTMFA
T3 sequence (P04632 1-268 partner): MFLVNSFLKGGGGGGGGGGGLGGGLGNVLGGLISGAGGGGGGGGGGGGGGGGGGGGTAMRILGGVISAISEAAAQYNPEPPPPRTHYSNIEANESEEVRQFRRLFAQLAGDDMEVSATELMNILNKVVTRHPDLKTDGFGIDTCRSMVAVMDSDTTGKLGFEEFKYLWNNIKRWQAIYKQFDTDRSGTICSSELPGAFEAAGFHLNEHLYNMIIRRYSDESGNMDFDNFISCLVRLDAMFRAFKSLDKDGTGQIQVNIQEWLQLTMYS
Method: (§4) To evaluate inhibitory activity, stock solutions (40 times concentrated) of each compound to be tested were prepared in 100% anhydrous DMSO and 5 μL of each inhibitor preparation were aliquoted into each of three wells of a 96-well plate. Calpain I, prepared by a modification of the method of W. J. Lee et al. (Biochem. […] To start the reaction, 20 μL of 50 mM CaCl2 in assay buffer was added to all wells of the plate, excepting three, which were used as background signal baseline controls. Substrate hydrolysis was monitored every 5 minutes for a total of 30 minutes using a Fluoroskan II fluorescence plate reader. Substrate hydrolysis in the absence of inhibitor was linear for up to 15 minutes. Inhibition of calpain I activity was calculated as the percent decrease in the rate of substrate hydrolysis in the presence of inhibitor relative to the rate in its absence. Comparison between the inhibited and control rates was made within the linear range for substrate hydrolysis. For screening, compounds were tested at 10 μm. Compounds having 50% inhibition at 10 μM were considered active. […] The results were plotted as % inhibition versus log inhibitor concentration and the IC50 was calculated from linear regression of the data.

α-chymotrypsin = biological target: T4, α-chymotrypsin (Bos taurus, UniProt P00766); experiment: Inhibition of α-chymotrypsin (serine protease) activity; conditions: 10 μM inhibitor; 0.03 mM SuccAla-Ala-Pro-Phe-AMC, pH 7.5; read-out: Chymotrypsin % I @ 10 μM
T4 construct: purchased Sigma Chem. Co. C-3142
Method: as §2, §3, §1

cathepsin B = biological target: T5, cathepsin B (Homo sapiens, UniProt P07858); experiment: Inhibition of cathepsin B (cysteine protease) activity; conditions: 0.1 mM Cbz-Phe-Arg-AMC, pH 6.0; read-out: Cat B IC50
T5 construct: purchased Calbiochem 219364
Method: as §4, with “data. […] Additionally, the order of reagents added to the plate was altered because both enzymes are constitutively active. Following inhibitor addition to the plates, appropriate 2× concentrated stock dilutions of the enzyme preparations were made in assay buffer and 10 ul added to each well. The assay was initiated by addition of 100 ul of 2× concentrated stock dilution of substrate in assay buffer. Substrate hydrolysis was monitored using a Fluoroskan II (ex=390 nm; em=460 nm).” for “data.”

inhibition at 10 µM (thrombin)	pIC50 (cathepsin L)	pIC50 (Calpain I)	inhibition at 10 µM (α-chymotrypsin)	pIC50 (cathepsin B)	SMILES
2%	7.49	6.30	12%	5.35	CC(C)C[C@@H](CCS(=O)(=O)c1ccc2ccccc2c1)C(=O)N[C@H](C=O)CC(C)C [Compound 9, 2-Naphthylsulfonyl--CH2 CH2 CH(iBu)CO--Leu--H]
2%	8.52	7.52	18%	7.22	CC(C)CC(CC[S+]([O-])c1ccc2ccccc2c1)C(=O)N[C@H](C=O)CC(C)C (some centres unmarked) [Compound 13, 2-Naphthyl--S(O)--CH2 CH2 CH(iBu)CO--Leu--H]
1%	8.52	7.30	11%	6.82	CC(C)C[C@H](CCS(=O)(=O)c1ccc2ccccc2c1)C(=O)N[C@H](C=O)CC(C)C [Compound 10, 2-Naphthylsulfonyl--CH2 CH2 CH(iBu)CO--Leu--H]
5%	8.10	7.12	11%	7.22	CC(C)CC(CCSc1ccc2ccccc2c1)C(=O)N[C@H](C=O)CC(C)C (some centres unmarked) [Compound 11, 2-Naphthyl--SCH2 CH2 CH(iBu)CO--Leu--H]
